Reference: patent publication US9079870B2, “Thiol mediated/activated prodrugs of sulfur dioxide (SO2) having anti-bacterial activity” (priority 2012, dated 2015)
≈ marks a conversion by molar mass, not a printed value. Where two headings read alike, the source gives them in different places.

Experiments:
[1] = tested on: S. aureus ATCC 29213; assay: Antibacterial activity (MIC) against S. aureus; assay type: cell-based
Source text: (§1) The antibacterial activity of thiol mediated/activated prodrugs of SO2 i.e. 2,4-dinitrophenylsulfonamide related compounds against the gram positive pathogenic bacteria selected from the group S. aureus, E. feacalis is given herein below Table 2a.

[2] = tested on: E. feacalis ATCC 29212; assay: Antibacterial activity (MIC) against E. feacalis; assay type: cell-based
Source text: as §1

[3] = tested on: Mycobacterium tuberculosis H37Rv strain; assay: Antimycobacterial activity assay (MIC, 7H11 agar); assay type: cell-based; settings: for inhibition of growth of Mtb at 100 μg mL-1: tested at 100 μg mL-1
[4] = Cysteine-activated sulfur dioxide release, ion chromatography analysis of sulfite; settings: for SO2 yield, 5 min: 5 min after treatment of compound (100 1M) with 10 equiv of cysteine in pH 7.4 phosphate buffer; for % SO2 (30 min): 30 min after commencement of the reaction with thiol, per mole of compound
[5] = Pararosaniline-based colorimetric assay for sulfur dioxide; assay type: physicochemical; settings: detected with pararosaniline-based colorimetric assay; 10 equiv cysteine, pH 7.4
[6] = Staphylococcus aureus, ATCC29213; read-out: MIC (μg/mL) S. aureus ATCC 29213
[7] = Enterococcus faecalis, ATCC29212; read-out: MIC (μg/mL) E. feacalis ATCC 29212
[8] = Mycobacterium tuberculosis, H37RV, Table 2b, Mtb H37Rv
[9] = Mycobacterium tuberculosis, H37RV, Table 2b, inhibit 99% of bacterial growth, Mtb H37Rv
[10] = 30 min after treatment of compound (100 1M) with 10 equiv of cysteine in pH 7.4 phosphate buffer
[11] = Mycobacterium tuberculosis, Table 3, Mtb H37Rv, read-out: MIC
[12] = Mycobacterium tuberculosis, Table 2b, Mtb H37Rv, read-out: MIC
[13] = Mycobacterium tuberculosis, Table 2b, inhibit 99% of bacterial growth, Mtb H37Rv, read-out: MIC
[14] = Mycobacterium tuberculosis, H37RV, 672 h, Table 3, inhibit 99% of bacterial growth, Mtb H37Rv, read-out: MIC
[15] = Mycobacterium tuberculosis, H37RV, Table 3, Mtb H37Rv
[16] = Mycobacterium tuberculosis, H37RV, Table 3, inhibit 99% of bacterial growth, Mtb H37Rv
[17] = Table 3, 30 min after treatment of compound (100 μM) with 10 equiv of cysteine in pH 7.4 phosphate buffer
[18] = Table 2b, Mtb H37Rv, read-out: MIC
[19] = Staphylococcus aureus, ATCC29213, read-out: MIC (μg/mL) S. aureus ATCC 29213
[20] = Enterococcus faecalis, ATCC29212, read-out: MIC (μg/mL) E. feacalis ATCC 29212

In the case of `O=[N+]([O-])c1ccc(S(=O)(=O)Nc2ccc(F)cc2)c([N+](=O)[O-])c1` [Compound 10, N-(4-fluorophenyl) 2,4-dinitrophenylsulfonamide], the MIC [1, 6] is reported as 16 µg/mL (≈ 46.9 µM), the MIC [2, 7] is reported as over 16 µg/mL and the MIC [3, 8] is reported as 18.3 µM. For the same compound, the MIC [3, 9] was 6.25 µg/mL, the “SO2 yield, 5 min” value [4] was 18 µM and the “SO2 yield, 30 min” value [4, 10] was 55 µM.
In the case of `NCc1ccccc1` [BnNH2, Benzylamine, reference compound], the MIC [3, 11] is reported as over 250 µM, the MIC ([3]; Mycobacterium tuberculosis, Table 3, inhibit 99% of bacterial growth, Mtb H37Rv, read-out: MIC) is reported as over 100 µg/mL and the “inhibition of growth of Mtb at 100 μg mL-1” value (shortened to “inhibition of growth of Mtb”) [3] is reported as “did not show a significant inhibition of growth of Mtb”. The SO2 source [5] was “no”.
For `O=S([O-])[O-].[Na+].[Na+]` [sodium sulfite, reference compound], the “inhibition of growth of Mtb” value [3] was “inactive against Mtb”.
`NC(=O)c1cnccn1` [Pyrizinamide, reference compound] showed an MIC [3, 12] of 50.8 µM and an MIC [3, 13] of 6.25 µg/mL.
`CN1CCN(S(=O)(=O)c2ccc([N+](=O)[O-])cc2[N+](=O)[O-])CC1` [Compound 25, 1-[(2,4-dinitrophenyl)sulfonyl]-4-methylpiperazine] gave an MIC [3, 14] of at most 25 µg/mL, an MIC [3, 15] of 38 µM and an MIC [3, 16] of 12.5 µg/mL. The SO2 source [5] was “yes” and the “SO2 yield, 30 min” value [4, 17] was 88 µM.
In the case of `O=[N+]([O-])c1ccc(S(=O)(=O)NCc2ccc(Cl)cc2)c([N+](=O)[O-])c1` [Compound 3, N-(4-chlorobenzyl)2,4-dinitrophenylsulfonamide], the MIC [3, 8] is reported as 1.07 µM, the MIC [3, 9] is reported as 0.4 µg/mL and the “SO2 yield, 5 min” value [4] is reported as 77 µM. For the same compound, the “SO2 yield, 30 min” value [4, 10] was 96 µM.
In the case of `COC(=O)C(C)NS(=O)(=O)c1ccc([N+](=O)[O-])cc1[N+](=O)[O-]` (stereo not shown) [Compound 21, Methyl 2-{[(2,4-dinitrophenyl)sulfonyl]amino}propanoate], the MIC [3, 14] is reported as at most 25 µg/mL, the MIC [3, 15] is reported as 18.7 µM and the MIC [3, 16] is reported as 6.25 µg/mL. For the same compound, the SO2 source [5] was “yes” and the “SO2 yield, 30 min” value [4, 17] was 93 µM.
Compound `CC[C@@H](CO)NCCN[C@@H](CC)CO` [Ethambutol, reference compound] has an MIC [3, 12] of 7.63 µM and an MIC [3, 13] of 1.56 µg/mL.
With `COC(=O)C1CCCN1S(=O)(=O)c1ccc([N+](=O)[O-])cc1[N+](=O)[O-]` (stereo not shown) [Compound 22, Methyl 1[(2,4-dinitrophenyl)sulfonyl]pyrrolidine-2-carboxylate] the MIC [3, 14] was at most 25 µg/mL, the MIC [3, 15] was 35 µM and the MIC [3, 16] was 12.5 µg/mL. For the same compound, the SO2 source [5] was “yes” and the “SO2 yield, 30 min” value [4, 17] was 83 µM.
For `NNC(=O)c1ccncc1` [Isoniazide, reference compound], the MIC [3, 13] was 0.05 µg/mL, the MIC [3, 11] was 0.37 µM and the MIC [3, 18] was 0.37 µM. For the same compound, the “MIC” value ([3]; Table 3, inhibit 99% of bacterial growth, Mtb H37Rv) was 0.05 µg/mL and the SO2 source [5] was “no”.
Compound `C=CCN(CC=C)S(=O)(=O)c1ccc([N+](=O)[O-])cc1[N+](=O)[O-]` [Compound 32, N,N-diallyl-2,4-dinitrobenzenesulfonamide] has an MIC [1, 19] of 8 µg/mL (≈ 24.4 µM) and an MIC [2, 20] of over 16 µg/mL.
For `N#Cc1ccc(NS(=O)(=O)c2ccc([N+](=O)[O-])cc2[N+](=O)[O-])cc1` [Compound 11, N-(4-cyanophenyl) 2,4-dinitrophenylsulfonamide], the MIC [1, 6] was over 16 µg/mL, the MIC [2, 7] was over 16 µg/mL and the MIC [3, 8] was over 100 µM. For the same compound, the MIC [3, 9] was over 50 µg/mL, the “SO2 yield, 5 min” value [4] was 6 µM and the “SO2 yield in 30 min (%)” value ([4]; 30 min after commencement of the reaction with cysteine (10 equiv), pH 7.4) was 5%. The “SO2 yield, 30 min” value [4, 10] was 5 µM.
For `O=[N+]([O-])c1cccc(S(=O)(=O)N(CCCN(Cc2ccccc2)S(=O)(=O)c2ccc([N+](=O)[O-])cc2[N+](=O)[O-])Cc2ccccc2)c1` [Compound 41, N-benzyl-N-(3-(N-benzyl-3-nitrophenylsulfonamido)propyl)-2,4-dinitrobenzenesulfon-amide], the “% SO2 (30 min)” value [4] was 99%.
With `O=[N+]([O-])c1ccc(S(=O)(=O)NCc2ccc(C(F)(F)F)cc2)c([N+](=O)[O-])c1` [Compound 4, N-(4-trifluoromethylbenzyl) 2,4-dinitrophenylsulfonamide] the “MIC” value [3] was 0.4 µg/mL, the MIC [3, 18] was 0.98 µM and the “SO2 yield, 5 min” value [4] was 79 µM. For the same compound, the “SO2 yield, 30 min” value [4, 10] was 75 µM.
For `COc1ccc(CNS(=O)(=O)c2ccc([N+](=O)[O-])cc2[N+](=O)[O-])cc1` [Compound 2, N-(4-methoxybenzyl)2,4-dinitrophenylsulfonamide], the MIC [1, 6] was over 16 µg/mL, the MIC [2, 7] was over 16 µg/mL and the MIC [3, 8] was 0.68 µM. For the same compound, the MIC [3, 9] was 0.25 µg/mL, the “SO2 yield, 5 min” value [4] was 74 µM and the “SO2 yield, 30 min” value [4, 10] was 84 µM.
For `CN(CCc1ccccc1)S(=O)(=O)c1ccc([N+](=O)[O-])cc1[N+](=O)[O-]` [Compound 19, N-methyl, N-(2-phenylethyl) 2,4-dinitrophenylsulfonamide], the “MIC” value [3] was 0.78 µg/mL, the MIC [3, 18] was 2.13 µM and the “SO2 yield, 5 min” value [4] was 79 µM. For the same compound, the “SO2 yield, 30 min” value [4, 10] was 84 µM.
`C#CCN(Cc1ccccc1)S(=O)(=O)c1ccc([N+](=O)[O-])cc1[N+](=O)[O-]` [Compound 33, N-benzyl-2,4-dinitro-N-prop-2-yn-1-ylbenzenesulfonamide] showed an MIC [1, 19] of 4 µg/mL (≈ 10.7 µM) and an MIC [2, 20] of 8 µg/mL (≈ 21.3 µM).
For `O=[N+]([O-])c1ccc(S(=O)(=O)N(CCCN(Cc2ccccc2)S(=O)(=O)c2ccccc2[N+](=O)[O-])Cc2ccccc2)c([N+](=O)[O-])c1` [Compound 40, N-benzyl-N-(3-(N-benzyl-2-nitrophenylsulfonamido)propyl)-2,4-dinitrobenzenesulfon-amide], the “% SO2 (30 min)” value [4] was 88%.
For `C[C@H](NS(=O)(=O)c1ccc([N+](=O)[O-])cc1[N+](=O)[O-])c1ccccc1` [Compound 12, (S) N-(1-phenylethyl)-2,4-dinitrobenzenesulfonamide], the MIC [3, 8] was 4.44 µM, the MIC [3, 9] was 1.56 µg/mL and the “SO2 yield, 5 min” value [4] was 80 µM. For the same compound, the “SO2 yield, 30 min” value [4, 10] was 97 µM.
With `C[C@@H](NS(=O)(=O)c1ccc([N+](=O)[O-])cc1[N+](=O)[O-])c1ccccc1` [Compound 13, (R) N-(1-phenylethyl)-2,4-dinitrobenzenesulfonamide] the MIC [3, 8] was 4.44 µM, the MIC [3, 9] was 1.56 µg/mL and the “SO2 yield, 5 min” value [4] was 78 µM. The “SO2 yield, 30 min” value [4, 10] was 94 µM.
For `O=[N+]([O-])c1ccc(S(=O)(=O)N(Cc2ccccc2)c2ccccc2)c([N+](=O)[O-])c1` [Compound 17, (N-benzyl, N-phenyl) 2,4-dinitrophenylsulfonamide], the MIC [3, 18] was 4.44 µM, the “MIC” value ([3]; Table 2b, inhibit 99% of bacterial growth, Mtb H37Rv) was 1.56 µg/mL and the “SO2 yield, 5 min” value [4] was 44 µM. For the same compound, the “SO2 yield, 30 min” value [4, 10] was 94 µM.
In the case of `O=[N+]([O-])c1ccc(S(=O)(=O)N(CCc2ccccc2)Cc2ccccc2)c([N+](=O)[O-])c1` [Compound 20, N-benzyl, N-(2-phenylethyl) 2,4-dinitrophenylsulfonamide], the “MIC” value [3] is reported as 3.13 µg/mL, the MIC [3, 18] is reported as 7.09 µM and the “SO2 yield, 5 min” value [4] is reported as 37 µM. The “SO2 yield, 30 min” value [4, 10] was 75 µM.
For `COc1ccccc1N(CCCN(Cc1ccccc1)S(=O)(=O)c1ccc([N+](=O)[O-])cc1[N+](=O)[O-])S(=O)(=O)c1ccc([N+](=O)[O-])cc1[N+](=O)[O-]` [Compound 35, N-benzyl-N-(3-(N-(2-methoxyphenyl)-2,4-dinitrophenylsulfonamido)propyl)-2,4-dinitrobenzenesulfonamide], the “% SO2 (30 min)” value [4] was 161%.
In the case of `O=[N+]([O-])c1ccc(S(=O)(=O)N(CCCN(Cc2ccccc2)S(=O)(=O)c2ccc([N+](=O)[O-])cc2[N+](=O)[O-])Cc2ccccc2)cc1` [Compound 42, N-benzyl-N-(3-(N-benzyl-4-nitrophenylsulfonamido)propyl)-2,4-dinitrobenzenesulfon-amide], the “% SO2 (30 min)” value [4] is reported as 98%.
`COc1ccccc1NS(=O)(=O)c1ccc([N+](=O)[O-])cc1[N+](=O)[O-]` [Compound 8, N-(2-methoxyphenyl) 2,4-dinitrophenylsulfonamide] showed an MIC [1, 6] of 8 µg/mL (≈ 22.6 µM), an MIC [2, 7] of 16 µg/mL (≈ 45.3 µM) and an MIC [3, 8] of 8.85 µM. For the same compound, the MIC [3, 9] was 3.13 µg/mL, the “SO2 yield, 5 min” value [4] was 57 µM and the “SO2 yield, 30 min” value [4, 10] was 86 µM.
With `O=[N+]([O-])c1ccc(S(=O)(=O)NCc2ccccc2C(F)(F)F)c([N+](=O)[O-])c1` [Compound 5, N-(2-trifluoromethylbenzyl) 2,4-dinitrophenylsulfonamide] the “MIC” value [3] was 1.56 µg/mL, the MIC [3, 18] was 3.84 µM and the “SO2 yield, 5 min” value [4] was 81 µM. The “SO2 yield, 30 min” value [4, 10] was 84 µM.
For `CNCc1ccccc1` [BnNHMe, N-methylbenzylamine, reference compound], the MIC [3, 15] was over 250 µM, the MIC [3, 16] was over 100 µg/mL and the “inhibition of growth of Mtb” value [3] was “a similar observation”. For the same compound, the SO2 source [5] was “no”.
With `CN(c1ccccc1)S(=O)(=O)c1ccc([N+](=O)[O-])cc1[N+](=O)[O-]` [Compound 18, (N-methyl, N-phenyl) 2,4-dinitrophenylsulfonamide] the “MIC” value [3] was 0.78 µg/mL, the MIC [3, 18] was 2.31 µM and the “SO2 yield, 5 min” value [4] was 89 µM. For the same compound, the “SO2 yield, 30 min” value [4, 10] was 94 µM.
For `O=[N+]([O-])c1ccc(S(=O)(=O)NCCc2ccccc2)c([N+](=O)[O-])c1` [Compound 14, N-(2-phenylethyl) 2,4-dinitrophenylsulfonamide], the “MIC” value [3] was 0.4 µg/mL, the MIC [3, 18] was 1.13 µM and the “SO2 yield, 5 min” value [4] was 76 µM. For the same compound, the “SO2 yield, 30 min” value [4, 10] was 100 µM.
